Experimental data reported in publication PMC9260506, “Identification of Highly Cross-Reactive Mimotopes for a Public T Cell Response in Murine Melanoma” (Frontiers in Immunology, 2022).

Legend:
[1] = target: p15E peptide presented by H-2K^b, refolded pMHC (mouse | human | murine leukemia virus); assay: SPR
[2] = target: 7PPG2 TCR, recombinant soluble (mouse) (UniProt P01849); assay: SPR; details: peptide-MHC
[3] = target: 7PPG4 TCR, recombinant soluble (mouse) (UniProt P01849); assay: SPR; details: peptide-MHC
[4] = system: 7PPG4 TCR; assay: Steady-state surface plasmon resonance, pMHC on immobilized 7PPG4 TCR; type: binding, mouse; details: Figure 5C
From the text: Recombinant soluble TCRs used for yeast library selections and surface plasmon resonance experiments were produced using a baculovirus expression system in Hi5 insect cells. TCR alpha chain extracellular domain sequences were cloned into pAcGP67a vector containing a 3C protease site ([…]) followed by an acidic leucine zipper, AviTag biotinylation site ([…]), and poly-histidine tag (6×His). TCR beta chain extracellular domain sequences were cloned into pAcGP67a vector containing a 3C site followed by a basic leucine zipper and poly-histidine tag. 2 μg of each plasmid was transfected into SF9 insect cells with BestBac 2.0 linearized baculovirus DNA (Expression Systems) using Cellfectin II reagent (Invitrogen). SF9s were then infected with 1:1000 primary transfection supernatant to amplify the virus. Titration of alpha and beta chain viruses was performed to identify the optimal ratio of the two viruses for heterodimer formation. Protein was then produced by large scale infection of Hi5 cells as previously described ([10]). Briefly, secreted protein was purified using HisPur Ni-NTA resin (Thermo) for immobilized metal affinity chromatography (IMAC) and biotinylated overnight at 4°C using biotin (Avidity), ATP, and BirA ligase. […] Biotinylation efficiency was assessed by adding streptavidin (ThermoFisher) to ~2 ug of protein and running an SDS-PAGE gel. […]

[5] = system: 7PPG4-transduced 58^-/- T cells; assay: T cell activation, peptide-loaded DC2.4 co-culture, IL-2 ELISA (7PPG4); type: cell-based, murine; details: DC2.4 cells loaded with various peptide concentrations 2-3 h, 24 h co-culture
Procedure: (§1) T cell line generation: For creation of T cell lines, TCR alpha chain was linked to TCR beta chain by a P2A sequence, followed by EGFP fluorescent protein sequence, in the MP71 retroviral vector. 80% confluent HEK293-T cells were transfected with 2 μg of TCR plasmid and 1 μg pCL-Eco helper plasmid with 6 μg (3× DNA mass) PEI (Santa Cruz Biotech) to create retrovirus. 2 days later, the supernatant was then used to transduce CD8^+ 58^-/^- cells with 0.8 μg/mL polybrene (Santa Cruz Biotech). Cells were spinfected at 1000×g and 32°C for 1.5 hours. 2 days later, transduction was assessed by expression of EGFP and by staining with an antibody against murine TCR β chain. If necessary, cells were sorted on EGFP on a FACSAria (BD) to obtain a >95% transduced population.
(§2) DC co-culture: 25,000 DC2.4 cells per well were incubated with various concentrations of peptide in 100 μL RPMI complete media for 2-3 hours before the addition of T cells. 25,000 T cells per well were added in 100 μL RPMI complete media in 96 well plates.
(§3) After 24 hours, plates were spun down at 500×g for 5 minutes, and 2×100 μL samples of supernatant were saved and frozen at -80°C. T cell activation was assessed using mouse IL-2 ELISA kits (Invitrogen), with samples diluted 1:2 - 1:20 for comparison to the standard curve. Absorbance values were measured with a Tecan Infinite m200 Pro plate reader.

[6] = system: B16F10 melanoma cells; assay: Prophylactic vaccination and B16F10 tumor challenge; type: in vivo, C57BL/6 mice
Procedure: (§4) MSA and TTR long peptide fusions were produced in house by the Wittrup lab as previously described ([23]). Long peptide-amphiphile fusion vaccines were obtained from Northwestern University Peptide Synthesis Core (p15E and mimotopes) or produced in house by the Irvine lab as previously described (OVA amph) ([16], [22]). Lipo-CpG was produced in house by the Irvine lab as previously described ([16], [22]). 5 nmol of vaccine and 1.24 nmol of lipo-CpG per injection were used in a volume of 100 μL PBS, sterile filtered, and injected subcutaneously at the tail base, 50 μL per side, using 31G insulin syringes. Mice were primed and then boosted at 2 and 4 weeks following prime (n=5 per group).
Two weeks after the second vaccine boost, 10^5 B16F10 cells in 100 μL PBS were injected subcutaneously on the right flank using 29G insulin syringes. Tumor areas were calculated by multiplying length and width taken by caliper measurement every other day beginning three days post-tumor inoculation. Mice were euthanized when tumor area exceeded 100 mm^2.

[7] = system: CD8^+ T cells; assay: Intracellular cytokine staining of peripheral blood after vaccination; type: in vivo, C57BL/6 mice; details: for CD8^+ T cell reactivity to p15E stimulation (ICS): Figure 7C
From the text: as §4, with “5 nmol of vaccine and 1.24 nmol of lipo-CpG per injection were used in a volume of 100 μL PBS, sterile filtered, and injected subcutaneously at the tail base, 50 μL per side, using 31G insulin syringes.” left out
One week following each vaccine boost, blood samples were drawn retro-orbitally from each mouse. 50-80 μL was used per well for stimulation with peptide, and excess blood from each group was pooled and used for a positive and negative control well per group. Red blood cells were lysed with ACK lysis buffer (Thermo), and then cells were washed once with FACS buffer. In 100 μL/well RPMI complete media, sample wells were stimulated with 10 μg/mL peptide (p15E, 7PPG2-mim6, or 7PPG4-mim2), and positive control wells were stimulated with 10 ng/mL PMA and 10 μg/mL ionomycin. Cells were stimulated for two hours before 1 uL/well brefeldin A (BD GolgiPlug) was added, and then cells were incubated for an additional four hours. Cells were washed twice with cold PBS and then stained with Zombie Aqua 1:1000 and Fc block 1:100 in 100 μL/well PBS for 15 minutes at room temperature. Cells were then stained with CD8 APC 1:100 in 100 μL/well FACS buffer for 20 minutes at room temperature. Cells were fixed and permeabilized using 100 μL/well of CytoFix/CytoPerm solution (BD) for 20 minutes at 4°C. Following two washes with Perm/Wash buffer (BD), cells were stained with IFN-γ PE and TNF-α AF488 1:75 each in 50 μL/well Perm/Wash buffer for 30 minutes at 4°C. Following two washes with FACS buffer, samples were run on an LSR II (BD) or Cytoflex (Beckman Coulter) and data analyzed in FlowJo v10. Outliers were identified using the ROUT method with Q = 1% (GraphPad Prism 9).

[8] = system: 7PPG2-transduced 58^-/- T cells; assay: T cell activation, peptide-loaded DC2.4 co-culture, IL-2 ELISA (7PPG2); type: cell-based, murine; details: DC2.4 cells loaded with various peptide concentrations 2-3 h, 24 h co-culture
Procedure: as §1, §2, §3

[9] = system: p15E-pulsed splenocytes; assay: In vivo killing assay of peptide-pulsed donor splenocytes; design: species or system C57BL/6 mice; details: day 36 spleens, 24 h after i.v. injection of about 1:1 CFSE-dyed p15E-pulsed and violet-dyed OVA-pulsed splenocytes; amphiphile vaccines days 0, 14, 28; N=3 mice/group
Procedure: as §4
Experimental mice were vaccinated as described above. A separate group of age-matched female C57BL/6 donor mice were euthanized and spleens removed. In a sterile hood, single cell suspensions were created by mashing spleens through 70 μm mesh filters. Red blood cells were lysed using ACK lysis buffer (Thermo), and cells were washed twice with PBS. […] 24 hours later, experimental mice were euthanized and splenocytes analyzed to compare ratios of CFSE-dyed to Violet-dyed cells. Samples were run on a Cytoflex and data analyzed in FlowJo v10.

7ELG1 TCR, recombinant soluble (from UniProt P01849)
Kd [1]: 39 µM

7PPG2 TCR, recombinant soluble (from UniProt P01849)
Kd [1]: 23 µM

7PPG2-mim6 mimotope () presented by H-2K^b, refolded pMHC (from UniProt P61769 21-119)
Kd [2]: 19 µM | Kd [3]: > 100 µM

7PPG3 TCR, recombinant soluble (from UniProt P01849)
Kd [1]: 20 µM

7PPG4-mim2 mimotope () presented by H-2K^b, refolded pMHC (from UniProt P61769 21-119)
Kd [2]: 42 µM

KSPWFITL [7PPG4-mim2, p15E mimotope identified from yeast display pMHC library selection with 7PPG4 TCR]
affinity for 7PPG4 relative to p15E ([4]; SPR, 5 μM compared to 26 μM): five-fold higher affinity | T cell activation (IL-2 secretion) [5]: much more potently than p15E | Autoreactivity in vivo ([6]; all in vivo studies with the amphiphile vaccine): did not show evidence of deleterious autoreactivity | CD8^+ T cell reactivity to 7PPG2-mim6 stimulation (ICS) ([7]; amphiphile vaccine + lipo-CpG, days 21 and 35, Supplementary Figure 7A): some cross reactivity to 7PPG2-mim6 stimulation | CD8^+ T cells reacting to 7PPG4-mim2 stimulation (ICS) ([7]; day 21, 5 nmol amphiphile vaccine + lipo-CpG, Supplementary Figure 7B, N=5): 40 % of CD8^+ T cells | CD8^+ T cell reactivity to p15E stimulation (ICS) ([7]; day 35, 5 nmol amphiphile vaccine + 1.24 nmol lipo-CpG, boosts days 14 and 28, N=5): 40%

KSPWFTTL [p15E, previously identified MLVenv peptide presented by the class I MHC H-2K^b]
T cell activation (IL-2 secretion) [5]: activated in a dose-dependent manner | Survival after tumor challenge ([6]; first experiment, 1×10^5 B16F10 cells six weeks after prime, amphiphile vaccines, euthanized at tumor area >100 mm^2, N=5, Figure 7F): identical survival curves | T cell activation (IL-2 secretion) [8]: activated in a dose-dependent manner | CD8^+ T cell reactivity to p15E stimulation (ICS) ([7]; days 21 and 35, 5 nmol amphiphile vaccine + lipo-CpG, compared with adjuvant-only control): did not show any significant reactivity compared to the control group | Fraction of p15E-pulsed cells remaining [9]: little difference in fraction of p15E-pulsed cells compared to the control group

SIINFEKL [OVA]
CD8^+ T cell reactivity to OVA (ICS) ([7]; killing-assay study, day 35, OVA amphiphile vaccine day 0, boosts days 14 and 28, N=3 mice/group, Supplementary Figure 6B): 20% | Fraction of p15E-pulsed cells remaining [9]: high fraction of p15E-pulsed cells remaining

SIYRYYGL [2C TCR cognate antigen, control peptide]
T cell activation (IL-2 secretion) [5]: no activation | T cell activation (IL-2 secretion) [8]: no activation

VSPWFNTL [7PPG2-mim6, p15E mimotope identified from yeast display pMHC library selection with 7PPG2 TCR]
Kd ([4]; mimotope or p15E peptide displayed by H-2K^b as analyte, immobilized TCR, 25°C, steady state): > 100 µM | T cell activation (IL-2 secretion) [8]: much more potently than p15E | CD8^+ T cell reactivity to 7PPG4-mim2 stimulation (ICS) ([7]; amphiphile vaccine + lipo-CpG, days 21 and 35, Supplementary Figure 7B): minimal reactivity to 7PPG4-mim2
